Results published in ChEMBL document CHEMBL1138982 (Bioorg Med Chem Lett, 2006).

Key:
Substance-P receptor = Substance-P receptor (Homo sapiens, UniProt P25103); assay: Displacement of [3H]-labeled substance P from cloned human NK1 receptor expressed in CHO cells; type: cell-based
Gerbil, jird = assay: Inhibition of GR-73632 induced foot tapping in gerbil, po; type: functional; conditions: Meriones, read-out: ID50 (the source's name)

Sequence of Substance-P receptor (P25103 whole entry): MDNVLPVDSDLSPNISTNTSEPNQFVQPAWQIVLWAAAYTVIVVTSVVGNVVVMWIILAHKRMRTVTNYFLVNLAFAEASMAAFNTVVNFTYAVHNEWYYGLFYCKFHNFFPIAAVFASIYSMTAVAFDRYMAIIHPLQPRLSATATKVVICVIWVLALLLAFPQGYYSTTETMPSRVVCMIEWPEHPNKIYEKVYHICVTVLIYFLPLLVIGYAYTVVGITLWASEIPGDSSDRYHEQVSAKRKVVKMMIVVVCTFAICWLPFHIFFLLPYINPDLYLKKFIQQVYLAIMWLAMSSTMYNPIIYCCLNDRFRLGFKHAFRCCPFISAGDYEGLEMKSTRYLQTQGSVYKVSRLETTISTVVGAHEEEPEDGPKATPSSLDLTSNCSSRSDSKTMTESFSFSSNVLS

Ki (Substance-P receptor) [nM]	Compound	ED50 (Gerbil, jird) [mg/kg]
45	CN(Cc1cc(C(F)(F)F)cc(C(F)(F)F)c1)C(=O)c1ccccc1-c1ccccc1Br	–
> 10000	CC(C)(NC(=O)c1ccccc1-c1ccccc1)c1cc(C(F)(F)F)cc(C(F)(F)F)c1	–
51	CN(Cc1cc(C(F)(F)F)cc(C(F)(F)F)c1)C(=O)c1ccccc1-c1ccccc1	–
4	Cc1ccccc1-c1cccnc1N(C)C(=O)C(C)(C)c1cc(C(F)(F)F)cc(C(F)(F)F)c1	–
0.44	Cc1ccccc1-c1nc(N2CCN(C)CC2)ncc1N(C)C(=O)C(C)(C)c1cc(C(F)(F)F)cc(C(F)(F)F)c1	–
68	CN(C(=O)C(C)(C)c1cc(C(F)(F)F)cc(C(F)(F)F)c1)c1ccccc1-c1ccccc1	–
93	Clc1cncc(Cl)c1N/N=C/c1ccccc1-c1c(Cl)cccc1Cl	–
15	Cc1onc(-c2c(Cl)cccc2Cl)c1/C=N/Nc1c(Cl)cncc1Cl	–
8.5	Cc1ccccc1-c1ccncc1C(=O)N(C)Cc1cc(C(F)(F)F)cc(C(F)(F)F)c1	–
1.7	Cc1ccccc1-c1nc(N2CCN(C)CC2)ncc1C(=O)N(C)Cc1cc(C(F)(F)F)cc(C(F)(F)F)c1	–
1.4	Cc1ccccc1-c1cc(N2CCN(C)CC2)ccc1C(=O)N(C)Cc1cc(C(F)(F)F)cc(C(F)(F)F)c1	–
3.3	Cc1ccccc1-c1cnccc1N(C)C(=O)C(C)(C)c1cc(C(F)(F)F)cc(C(F)(F)F)c1	–
49	Clc1cncc(Cl)c1N/N=C/c1ccccc1-c1ccccc1Br	–
4.6	Cc1ccccc1-c1cnccc1C(=O)N(C)Cc1cc(C(F)(F)F)cc(C(F)(F)F)c1	–
224	FC(F)(F)c1cc(COCc2ccccc2-c2ccccc2)cc(C(F)(F)F)c1	–
3.8	Cc1ccccc1-c1cccnc1C(=O)N(C)Cc1cc(C(F)(F)F)cc(C(F)(F)F)c1	–
2	Cc1ccccc1-c1ccc(N2CCN(C)CC2)nc1N(C)C(=O)C(C)(C)c1cc(C(F)(F)F)cc(C(F)(F)F)c1	–

Ki (Substance-P receptor) [nM]	Compound	ED50 (Gerbil, jird) [mg/kg]
1.3	Cc1ccccc1-c1cc(N2CCS(=O)(=O)CC2)ncc1N(C)C(=O)C(C)(C)c1cc(C(F)(F)F)cc(C(F)(F)F)c1	0.8
372	FC(F)(F)c1cc(CNCc2ccccc2-c2ccccc2)cc(C(F)(F)F)c1	–
6.2	Cc1ccccc1-c1ccc(N2CCN(C)CC2)nc1C(=O)N(C)Cc1cc(C(F)(F)F)cc(C(F)(F)F)c1	–
316	Cc1ccccc1-c1ccccc1/C=N/Nc1c(Cl)cncc1Cl	–
562	CN(C(=O)Cc1cc(C(F)(F)F)cc(C(F)(F)F)c1)c1ccccc1-c1ccccc1	–
1.1	Cc1ccccc1-c1cnc(N2CCN(C)CC2)nc1N(C)C(=O)C(C)(C)c1cc(C(F)(F)F)cc(C(F)(F)F)c1	–
22	CN(Cc1cc(C(F)(F)F)cc(C(F)(F)F)c1)C(=O)c1ccccc1-c1ccccc1Cl	–
0.4	Cc1ccccc1-c1cc(N2CCC(O)CC2)ncc1N(C)C(=O)C(C)(C)c1cc(C(F)(F)F)cc(C(F)(F)F)c1	0.5
> 10000	O=C(NCc1cc(C(F)(F)F)cc(C(F)(F)F)c1)c1ccccc1-c1ccccc1	–
1.7	Cc1ccccc1-c1cnc(N2CCN(C)CC2)cc1N(C)C(=O)C(C)(C)c1cc(C(F)(F)F)cc(C(F)(F)F)c1	–
933	Clc1cncc(Cl)c1N/N=C/c1ccccc1-c1ccccc1	–
174	Clc1ccccc1-c1ccccc1/C=N/Nc1c(Cl)cncc1Cl	–
295	CN(C(=O)c1ccccc1-c1ccccc1)C(C)(C)c1cc(C(F)(F)F)cc(C(F)(F)F)c1	–
724	CN(Cc1cc(C(F)(F)F)cc(C(F)(F)F)c1)Cc1ccccc1-c1ccccc1	–
–	Cc1ccccc1-c1cc(N2CCOCC2)ncc1N(C)C(=O)C(C)(C)c1cc(C(F)(F)F)cc(C(F)(F)F)c1 [BEFETUPITANT]	0.2
0.95	Cc1ccccc1-c1cc(N2CCN(C)CC2)ncc1N(C)C(=O)C(C)(C)c1cc(C(F)(F)F)cc(C(F)(F)F)c1 [NETUPITANT]	0.5
